System: Staphylococcus aureus
Assay: Antimicrobial activity against Staphylococcus aureus ATCC 29213
Format: functional, organism-based

Row | SMILES | IC50
1 | Cc1ccc(O)c(O)c1 | 148 µM

System: Leishmania donovani
Assay: Antileishmanial activity against promastigote forms of Leishmania donovani by alamar blue assay
Format: functional, organism-based

Row | SMILES | IC50 | IC90
2 | O=Cc1cc(O)ccc1O | 3.3 µM | 6.1 µM
3 | OCc1cc(O)cc(O)c1Cc1ccc(O)c(O)c1 | 13 µM | 22 µM
4 | CC1=C[C@H](O)[C@H]2O[C@H]2C1=O | 6.9 µM | 10.8 µM
5 | OCc1cccc(O)c1 | 34 µM | 52.3 µM
6 | CC1=C[C@@H](O)[C@H](O)CC1=O (single isomer, unassigned) | 47.3 µM | 61 µM
7 | C[C@@H]1[C@H](O)[C@@H](C)/C=C/C=C/C=C/C=C/C=C/C=C/C=C/[C@H](O[C@@H]2O[C@H](C)[C@@H](O)[C@H](N)[C@@H]2O)C[C@@H]2O[C@](O)(C[C@@H](O)C[C@@H](O)[C@H](O)CC[C@@H](O)C[C@@H](O)CC(=O)O[C@H]1C)C[C@H](O)[C@H]2C(=O)O [AMPHOTERICIN B] | – | 0.4 µM
8 | OCc1cc(O)ccc1O [GENTISYL ALCOHOL] | 8.5 µM | 10.4 µM
9 | Cc1cccc(O)c1 [METACRESOL] | 9.2 µM | 12.4 µM
10 | N=C(N)c1ccc(OCCCCCOc2ccc(C(=N)N)cc2)cc1 [PENTAMIDINE] | 3.2 µM | 5.9 µM

System: Staphylococcus aureus
Assay: Antimicrobial activity against methicillin-resistant Staphylococcus aureus ATCC 33591
Format: functional, organism-based

Row | SMILES | IC50
11 | Cc1ccc(O)c(O)c1 | 72.9 µM

From ChEMBL document CHEMBL3351471, “Antileishmanial metabolites from Geosmithia langdonii” (J Nat Prod, 2014)
